Assay results published in patent US20240343740A1, “MACROCYCLIC GLUCAGON-LIKE PEPTIDE 1 RECEPTOR AGONISTS” (Eli Lilly and Company, priority 2021, published 2024).

Assays:
human GLP-1R [1] = biological target: T1, human GLP-1R (Homo sapiens, UniProt P43220); test: Human GLP-1 Receptor HEK293 cell cAMP assay, 104 fmol/mg GLP-1R expression density; type: cell-based; design: expressed in transfected cells; host or cells: HEK293 clonal cell line; details: HEK293 cell line with 104 fmol/mg expression density of GLP-1R; for EC50: geometric mean, read-out: EC50 nM (SEM, n), intracellular cAMP response, relative EC50; for Emax: percent of maximal response to GLP-1(7-36)NH2, arithmetic mean, read-out: Emax % (SEM, n), intracellular cAMP response
Protocol: (§1) Human GLP-1 Receptor HEK293 Cell cAMP Assay
(§2) GLP-1 Receptor functional activity is determined using cAMP formation in an HEK293 clonal cell line expressing human GLP-1R (NCBI accession number NP_002053) at an expression density of 581±94 (n=6) and 104±12 (n=5) fmol/mg protein (determined using [^125I]GLP-1(7-36)NH2 homologous competition binding analysis). The hGLP-1R receptor expressing cells are treated with compound (20 point concentration-response curve in DMSO, 2.75-fold Labcyte Echo direct dilution, 384 well plate Corning Cat #3570) in DMEM (Gibco Cat #31053) supplemented with 1× GlutaMAX™ (Gibco Cat #35050), 0.1% bovine casein (Sigma C4765-10ML), 250 μM IBMX (3-Isobutyl-1-methylxanthine, Acros Cat #228420010) and 20 mM HEPES (Gibco Cat #15630) in a 20 μL assay volume (final DMSO concentration is 0.5%). After a 30 min incubation at 37° C., the resulting increase in intracellular cAMP is quantitatively determined using the CisBio cAMP Dynamic 2 HTRF Assay Kit (62AM4PEJ). Briefly, cAMP levels within the cell are detected by adding the cAMP-d2 conjugate in cell lysis buffer (10 μL) followed by the antibody anti-cAMP-Eu^3+-Cryptate, also in cell lysis buffer (10 μL). The resulting competitive assay is incubated for at least 60 min at RT, then detected using a PerkinElmer Envision® instrument with excitation at 320 nm and emission at 665 nm and 620 nm. Envision units (emission at 665 nm/620 nm*10,000) are inversely proportional to the amount of cAMP present and are converted to nM cAMP per well using a cAMP standard curve. The amount of cAMP generated (nM) in each well is converted to a percent of the maximal response observed with human GLP-1(7-36)NH2. A relative EC50 value and percent top (Emax) are derived by non-linear regression analysis using the percent maximal response vs. the concentration of compound added, fitted to a four-parameter logistic equation.

human GLP-1R [2] = biological target: T1, human GLP-1R; test: Human GLP-1 Receptor HEK293 cell cAMP assay, 581 fmol/mg GLP-1R expression density; type: cell-based; design: expressed in transfected cells; host or cells: HEK293 clonal cell line; details: HEK293 cell line with 581 fmol/mg expression density of GLP-1R; for EC50: geometric mean, read-out: EC50 nM (SEM, n), intracellular cAMP response, relative EC50; for Emax: percent of maximal response to GLP-1(7-36)NH2, arithmetic mean, read-out: Emax % (SEM, n), intracellular cAMP response
Protocol: as §1, §2

T1 sequence (P43220 24-463): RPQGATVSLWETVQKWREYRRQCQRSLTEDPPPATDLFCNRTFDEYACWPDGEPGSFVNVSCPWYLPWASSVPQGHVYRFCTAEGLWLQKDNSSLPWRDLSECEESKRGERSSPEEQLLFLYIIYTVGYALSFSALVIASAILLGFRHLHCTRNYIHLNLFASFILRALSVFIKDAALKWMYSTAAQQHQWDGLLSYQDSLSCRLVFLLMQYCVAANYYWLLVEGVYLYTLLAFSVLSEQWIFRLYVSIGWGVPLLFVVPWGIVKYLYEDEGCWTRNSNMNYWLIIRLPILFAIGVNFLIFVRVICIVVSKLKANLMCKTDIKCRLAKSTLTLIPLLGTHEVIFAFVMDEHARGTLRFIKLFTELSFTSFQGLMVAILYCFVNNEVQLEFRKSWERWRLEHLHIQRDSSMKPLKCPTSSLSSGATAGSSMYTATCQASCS

Structure (SMILES)	EC50 (human GLP-1R [1])	Emax (human GLP-1R [1])	EC50 (human GLP-1R [2])	Emax (human GLP-1R [2])
COc1ccc(-c2ccc3c(c2)CCCOc2cc(ccc2Cc2nc4ccc(C(=O)O)cc4n2C[C@@H]2CCO2)-c2cccc(n2)OC3)cn1 [Example 29, (S)-2-((5^4-(6-Methoxypyridin-3-yl)-3,9-dioxa-2(2,6)-pyridina-1(1,3),5(1,2)-dibenzenacyclononaphane-1^4-yl)methyl)-1-(oxetan-2-ylmethyl)-1H-benzo[d]imidazole-6-carboxylic acid]	562 nM	59.2%	262 nM	92.4%
Cn1nccc1-c1ccc2c(c1)CCCOc1cc(ccc1Cc1nc3ccc(C(=O)O)cc3n1C[C@@H]1CCO1)-c1cccc(n1)OC2 [Example 31, (S)-2-((5^4-(1-Methyl-1H-pyrazol-5-yl)-3,9-dioxa-2(2,6)-pyridina-1(1,3),5(1,2)-dibenzenacyclononaphane-1^4-yl)methyl)-1-(oxetan-2-ylmethyl)-1H-benzo[d]imidazole-6-carboxylic acid]	251 nM	88.8%	70.1 nM	104%
Cn1ncc(-c2ccc3c(c2)CCCOc2cc(ccc2Cc2nc4ccc(C(=O)O)cc4n2C[C@@H]2CCO2)-c2cccc(n2)OC3)n1 [Example 32, (S)-2-((5^4-(2-Methyl-2H-1,2,3-triazol-4-yl)-3,9-dioxa-2(2,6)-pyridina-1(1,3),5(1,2)-dibenzenacyclononaphane-1^4-yl)methyl)-1-(oxetan-2-ylmethyl)-1H-benzo[d]imidazole-6-carboxylic acid]	530 nM	70.9%	178 nM	98.9%

Further lines, results first:

EC50 (human GLP-1R [1])	Emax (human GLP-1R [1])	EC50 (human GLP-1R [2])	Emax (human GLP-1R [2])	Structure (SMILES)
287 nM	74.9%	98.4 nM	104%	O=C(O)c1ccc2nc(Cc3ccc4cc3OCCCc3cc(-c5cnn(CC6COC6)c5)ccc3COc3cccc-4n3)n(C[C@@H]3CCO3)c2c1 [Example 28, (S)-1-(Oxetan-2-ylmethyl)-2-((5^4-(1-(oxetan-3-ylmethyl)-1H-pyrazol-4-yl)-3,9-dioxa-2(2,6)-pyridina-1(1,3),5(1,2)-dibenzenacyclononaphane-1^4-yl)methyl)-1H-benzo[d]imidazole-6-carboxylic acid]
118 nM	77.1%	35.6 nM	98.1%	O=C(O)c1ccc2nc(Cc3ccc4cc3OCCCc3cc(-c5cn[nH]c5)ccc3COc3cccc-4n3)n(C[C@@H]3CCO3)c2c1 [Example 30, (S)-2-((5^4-(1H-Pyrazol-4-yl)-3,9-dioxa-2(2,6)-pyridina-1(1,3),5(1,2)-dibenzenacyclononaphane-1^4-yl)methyl)-1-(oxetan-2-ylmethyl)-1H-benzo[d]imidazole-6-carboxylic acid]
111 nM	85%	40.8 nM	112%	CS(=O)(=O)c1ccc(-c2ccc3c(c2)CCCOc2cc(ccc2Cc2nc4ccc(C(=O)O)cc4n2C[C@@H]2CCO2)-c2cccc(n2)OC3)cc1 [Example 33, (S)-2-((5^4-(4-(Methylsulfonyl)phenyl)-3,9-dioxa-2(2,6)-pyridina-1(1,3),5(1,2)-dibenzenacyclononaphane-1^4-yl)methyl)-1-(oxetan-2-ylmethyl)-1H-benzo[d]imidazole-6-carboxylic acid]
616 nM	82.3%	167 nM	110%	COc1cc(-c2ccc3c(c2)CCCOc2cc(ccc2Cc2nc4ccc(C(=O)O)cc4n2C[C@@H]2CCO2)-c2cccc(n2)OC3)ccn1 [Example 34, (S)-2-((5^4-(2-Methoxypyridin-4-yl)-3,9-dioxa-2(2,6)-pyridina-1(1,3),5(1,2)-dibenzenacyclononaphane-1^4-yl)methyl)-1-(oxetan-2-ylmethyl)-1H-benzo[d]imidazole-6-carboxylic acid]
